Assay results taken from US7078403B1, “Antiviral agents” (Biota Scientific Management Pty Ltd., priority 1999, dated 2006).

How the values were obtained:
[1] = tested on: HRV type 1A; test: Inhibition of viral cytopathic effect (CPE), visual scoring or neutral red, HRV type 1A in MRC-5 cells; assay type: cell-based, human rhinovirus; details: for Activity on Rhinovirus Type 1A EC50: HRV type 1A in MRC-5 cells, CPE inhibition; for Activity on Rhinovirus Type 1A SI: selectivity index = CC50 or MTC divided by EC50, HRV type 1A, MRC-5 cells
[2] = tested on: human embryo lung (MRC-5) cells; test: Cytotoxicity (CC50 or MTC) in uninfected MRC-5 cells; details: unit not given

Structure (SMILES)	Activity on Rhinovirus Type 1A EC50 [1]	Activity on Rhinovirus Type 1A SI [1]	Activity on Rhinovirus Type 1A MTC [2]
C=CCON=Cc1ccc(OCC2CCN(c3ccc(Cl)nn3)CC2)cc1 [Compound 30]	0.036 µg/mL	>28	>1
CON=Cc1cc(O)cc(OCCC2CCN(c3ccc(Cl)nn3)CC2)c1 [Compound 38]	0.69 µg/mL	>1.45	>1
CCON=Cc1cccc(OCCC2CCN(c3ccc(C)nn3)CC2)c1 [Compound 46]	0.062 µg/mL	>16.0	>1
C=CCON=Cc1cccc(OCCC2CCN(c3ccc(C)nn3)CC2)c1 [Compound 47]	0.066 µg/mL	>15	>1
CON=Cc1cccc(OCCC2CCN(c3ccc(C)nn3)CC2)c1 [Compound 48]	0.016 µg/mL	>62	>1
CCON=Cc1ccc(OCCC2CCN(c3cccnn3)CC2)cc1 [Compound 49]	0.056 µg/mL	>17.8	>1
CCO/N=C/c1ccc(OCCC2CCN(c3ccc(Cl)nn3)CC2)cc1OC [Compound 50]	0.008 µg/mL	>121.7	>1
C=CCON=Cc1ccc(OCCC2CCN(c3ccc(C)nn3)CC2)c(C)c1 [Compound 53]	<0.003 µg/mL	>208	0.667
CCCON=Cc1ccc(OCCC2CCN(c3ccc(C)nn3)CC2)c(C)c1 [Compound 54]	0.007 µg/mL	91	0.663
CCON=Cc1ccc(OC2CCN(c3ccc(Cl)nn3)CC2)cc1 [Compound 55]	2.68 µg/mL	>3	>10
CCON=Cc1ccc(OCCC2CCN(c3ccc(-c4ccccc4)nn3)CC2)cc1 [Compound 56]	2.31 µg/mL	>3	>10
CCON=Cc1ccc(OCCC2CCN(c3ccc(C(F)(F)F)nn3)CC2)cc1 [Compound 58]	0.498 µg/mL	>2	>1
Cc1ccc(N2CCC(CCOc3ccc(C=NOCC(F)(F)F)cc3)CC2)nn1 [Compound 59]	0.162 µg/mL	3.4	0.56
CON=Cc1cccc(OCC2CCN(c3ccc(Cl)nn3)CC2)c1 [Compound 60]	0.183 µg/mL	>17	>1
CCON=Cc1cccc(OCC2CCN(c3ccc(Cl)nn3)CC2)c1 [Compound 61]	0.058 µg/mL	>14	>1
C=CCON=Cc1cccc(OCC2CCN(c3ccc(Cl)nn3)CC2)c1 [Compound 62]	0.067 µg/mL	>14	>1
C=CCON=Cc1ccc(OCCC2CCN(c3ccc(OC)nn3)CC2)cc1 [Compound 63]	0.06 µg/mL	>15	>1
CCON=Cc1ccc(OCCN2CCN(c3cccnn3)CC2)cc1 [Compound 64]	0.05 µg/mL	>17	>1
CCON=Cc1cccc(OCCN2CCN(c3cccnn3)CC2)c1 [Compound 65]	0.21 µg/mL	>4.5	>1
C=CCON=Cc1ccc(OCCN2CCN(c3cccnn3)CC2)cc1 [Compound 66]	0.05 µg/mL	>18	>1
CON=Cc1ccc(OCCN2CCN(c3ccc(C)nn3)CC2)cc1 [Compound 67]	0.04 µg/mL	>20	>1
CCON=Cc1ccc(OCCN2CCN(c3ccc(C)nn3)CC2)cc1 [Compound 68]	0.04 µg/mL	>25	>1
C=CCON=Cc1ccc(OCCN2CCN(c3ccc(C)nn3)CC2)cc1 [Compound 69]	0.18 µg/mL	>5	>1
CON=Cc1cccc(OCCN2CCN(c3ccc(C)nn3)CC2)c1 [Compound 70]	0.05 µg/mL	>16	>1

Structure (SMILES)	Activity on Rhinovirus Type 1A EC50 [1]	Activity on Rhinovirus Type 1A SI [1]	Activity on Rhinovirus Type 1A MTC [2]
CCON=Cc1cccc(OCCN2CCN(c3ccc(C)nn3)CC2)c1 [Compound 71]	0.05 µg/mL	>18	>1
C=CCON=Cc1cccc(OCCN2CCN(c3ccc(C)nn3)CC2)c1 [Compound 72]	0.16 µg/mL	>6	>1
CON=Cc1ccc(OCCN2CCN(c3ccc(Cl)nn3)CC2)cc1 [Compound 73]	0.003 µg/mL	>312	>1
C=CCON=Cc1ccc(OCCN2CCN(c3ccc(Cl)nn3)CC2)cc1 [Compound 74]	0.02 µg/mL	>46	>1
CON=Cc1cccc(OCCN2CCN(c3ccc(Cl)nn3)CC2)c1 [Compound 75]	0.01 µg/mL	>98	>1
CCON=Cc1cccc(OCCN2CCN(c3ccc(Cl)nn3)CC2)c1 [Compound 76]	0.01 µg/mL	>98	>1
C=CCON=Cc1cccc(OCCN2CCN(c3ccc(Cl)nn3)CC2)c1 [Compound 77]	0.003 µg/mL	>279	>1
CCON=Cc1ccc(OCCC2CCN(c3ccc(C(F)(F)F)cn3)CC2)cc1 [Compound 84]	0.05 µg/mL	>19.6	>1
CCCON=Cc1ccc(OCCC2CCN(c3ccc(C)nn3)CC2)cc1 [Compound 85]	0.08 µg/mL	>12	>1
C=CCON=Cc1ccc(OCCC2CCN(c3ccc(C)nn3)CC2)cc1 [Compound 87]	0.01 µg/mL	>51	>1
C#CCON=Cc1ccc(OCCC2CCN(c3ccc(C)nn3)CC2)cc1 [Compound 88]	0.005 µg/mL	>172	>1
CON=Cc1ccc(OCCCC2CCN(c3ccc(Cl)nn3)CC2)cc1 [Compound 89]	0.005 µg/mL	>174	>1
CON=Cc1cccc(OCCCC2CCN(c3ccc(Cl)nn3)CC2)c1 [Compound 91]	0.02 µg/mL	>46	>1
CCON=Cc1cccc(OCCCC2CCN(c3ccc(Cl)nn3)CC2)c1 [Compound 92]	0.20 µg/mL	>5	>1
CON=Cc1ccc(OCCCC2CCN(c3ccc(C)nn3)CC2)cc1 [Compound 94]	0.024 µg/mL	>41	>1
CCON=Cc1ccc(OCCCC2CCN(c3ccc(C)nn3)CC2)cc1 [Compound 95]	0.30 µg/mL	>3	>1
CCON=Cc1cccc(OCCCC2CCN(c3ccc(C)nn3)CC2)c1 [Compound 98]	0.255 µg/mL	>3	>1
C=CCON=Cc1cccc(OCCCC2CCN(c3ccc(C)nn3)CC2)c1 [Compound 99]	0.205 µg/mL	>4	>1
CON=Cc1ccc(OCCCC2CCN(c3cccnn3)CC2)cc1 [Compound 102]	0.059 µg/mL	>17	>1
CCON=Cc1ccc(OCCCC2CCN(c3cccnn3)CC2)cc1 [Compound 103]	0.266 µg/mL	>3	>1
CON=Cc1cccc(OCCCC2CCN(c3cccnn3)CC2)c1 [Compound 105]	0.126 µg/mL	>8	>1
C=CCON=Cc1cccc(OCCCC2CCN(c3cccnn3)CC2)c1 [Compound 107]	0.062 µg/mL	>16	>1
CON=C(C)c1cc(C)c(OCCCc2cc(C)no2)c(C)c1 [Compound 109]	0.053 µg/mL	>18.8	>1
C#CCON=Cc1cc(C)c(OCCCc2cc(C)no2)c(C)c1 [Compound 119]	0.046 µg/mL	>21.4	>1
